Experimental data as given in US20220348868A1, “METHOD OF PRODUCING SKIN-DERIVED PRECURSOR CELLS” (KAO CORPORATION, priority 2014, published 2022).

System: human iPS cell-derived neural crest stem cells
Assay: Induction of differentiation from human iPS cell-derived neural crest stem cells to SKPs, observed by microphotograph
Assay type: cell-based
Conditions: CHIR99021 added at 0.5 micromolar to 5 micromolars (tested 0, 0.1, 0.5, 3, 5 micromolar)
Description: Based on the method described in Nature protocols, 5, pp. 688-701 (2010) or Cell reports, 3, pp. 1140-1152 (2013), the iPS cells subjected to the passage culture in Test Example 1 were cultured in a culture medium prepared by adding noggin (catalog number: 6057-NG-100/CF, 500 ng/mL, manufactured by R&D Systems, Inc.) and/or SB431542 (catalog number: 1614, 10 micromolars, manufactured by TOCRIS Bioscience) to a hES medium (−) bFGF for 5 days to 2 weeks to induce differentiation from human iPS cells to neural crest stem cells. The above-described iPS cell-derived neural crest stem cells were cultured in a D-MEM/F12 medium (catalog number: 10565-018, manufactured by Life Technologies Corporation) containing B-27 supplement (catalog number: 17504-044, 2% by mass, manufactured by life Technologies Corporation), EGF (catalog number: 336-EG-200, 20 ng/mL, manufactured by R&D Systems, Inc.), bFGF (catalog number: 064-04541, 40 ng/mL, manufactured by Wako Pure Chemical Industries, Ltd.), penicillin/streptomycin (catalog number: 15140-122, 50U, 50 microgram/mL, manufactured by Life Technologies Corporation) and 0 micromolar to 5 micromolars of CHIR99021 (catalog number 13122, manufactured by Cayman Chemical Company). […]

SMILES: Cc1c[nH]c(-c2cnc(NCCNc3ccc(C#N)cn3)nc2-c2ccc(Cl)cc2Cl)n1 [CHIR99021]
- amount of cells differentiated to SKPs, after passage culture (P1) (after selective passage culture of SKPs, FIG. 2, P1): a larger amount of the cells differentiated to SKPs grew
- amount of cells differentiated to SKPs, before passage culture (P0) (culture 3 to 5 days, FIG. 2, P0): a larger amount of the cells differentiated to SKPs was migrated in a peripheral area of the colony
